Here are results for 2 compounds from US7423053B2, “4-Aminothiazole derivatives” (Hoffmann-La Roche Inc., priority 2004, dated 2008).

The structures appear in SMILES notation. pKi: −log10 of the molar value.

Common to all, as to assay type: biochemical
What all share (settings): Rb substrate, ATP at 3x Km, Ki=IC50/(1+S/Km)

For test [1], the target named is human cyclin E-CDK2 (Homo sapiens, UniProt P24941). As to the kind of experiment: CDK2 HTRF kinase assay (Ki measurement). The method, then: (§1) This experiment was conducted using recombinant human cyclin B-CDK1, human cyclin E-CDK2 or human cyclin D1-CDK4 complexes. GST-cyclinE (GST-cycE), CDK2, GST-cyclinB (GST-cycB), CDK1, GST-CDK4 and cyclin D1 (cycD1) cDNA clones in baculovirus vectors were provided by Dr. W. Harper at the Baylor College of Medicine, Houston, Tex. Proteins were co-expressed in High Five™ insect cells and the complex was purified on glutathione Sepharose resin (Pharmacia, Piscataway, N.J.) as previously described (Harper, J. W. et al. Cell 1993, 75, 805-816). […]
(§2) The expression of the 62 Kd protein was under the control of an IPTG inducible promoter in an M15 E. coli strain. […] Purified Rb fusion protein stocks were quantitated for protein concentration, aliquoted, and stored at −70° C.
(§3) Using the protein constructs described above, CDK1, CDK2, and CDK4 HTRF assays were set up. These were done in 96-well format and read in 384-well plate format. […]
(§4) In the CDK4 assay, test compounds were diluted to 3× ntheir final concentrations in 25 mM Hepes, pH 7.0, 6.25 mM MgCl2, 1.5 mM DTT, 135 μM ATP. […] The plates were read using either ViewLux or Victor V readers (PerkinElmer Life Sciences) using an excitation wavelength of 340 nm and dual emission wavelengths of 615 nm and 665 nm. […]

Test [2] deals with human cyclin B-CDK1 (Homo sapiens, UniProt P06493). Kind of test: CDK1 HTRF kinase assay (Ki measurement). The method, then: as §1, §2, §3, §4
Sequence of human cyclin B-CDK1 (P06493 whole entry): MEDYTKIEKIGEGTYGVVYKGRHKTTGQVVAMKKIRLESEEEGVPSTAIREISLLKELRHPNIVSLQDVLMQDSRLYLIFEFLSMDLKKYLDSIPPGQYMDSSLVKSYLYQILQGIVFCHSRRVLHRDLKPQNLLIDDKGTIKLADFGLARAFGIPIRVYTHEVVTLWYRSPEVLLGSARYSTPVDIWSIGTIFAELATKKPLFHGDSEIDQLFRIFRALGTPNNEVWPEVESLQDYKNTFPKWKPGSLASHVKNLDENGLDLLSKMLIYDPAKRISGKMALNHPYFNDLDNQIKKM
Sequence of human cyclin B-CDK1 (P14635 whole entry partner): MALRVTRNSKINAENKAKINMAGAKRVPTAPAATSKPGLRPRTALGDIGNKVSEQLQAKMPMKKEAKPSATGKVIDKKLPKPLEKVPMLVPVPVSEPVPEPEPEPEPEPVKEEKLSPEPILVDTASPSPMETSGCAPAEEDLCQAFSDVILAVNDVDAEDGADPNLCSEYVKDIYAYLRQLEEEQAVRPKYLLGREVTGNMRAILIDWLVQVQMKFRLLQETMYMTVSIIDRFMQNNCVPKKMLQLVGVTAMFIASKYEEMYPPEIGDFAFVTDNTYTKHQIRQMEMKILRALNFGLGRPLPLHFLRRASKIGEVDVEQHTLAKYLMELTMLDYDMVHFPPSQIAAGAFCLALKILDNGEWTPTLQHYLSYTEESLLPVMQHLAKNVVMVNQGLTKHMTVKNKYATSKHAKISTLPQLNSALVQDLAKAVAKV
In test [3] the target is human cyclin D1-CDK4 (Homo sapiens, UniProt P11802). As to the kind of experiment: CDK4 HTRF kinase assay (Ki measurement). How it is done:
as §1, §2, §3, §4

Sequence of human cyclin D1-CDK4 (P11802 whole entry): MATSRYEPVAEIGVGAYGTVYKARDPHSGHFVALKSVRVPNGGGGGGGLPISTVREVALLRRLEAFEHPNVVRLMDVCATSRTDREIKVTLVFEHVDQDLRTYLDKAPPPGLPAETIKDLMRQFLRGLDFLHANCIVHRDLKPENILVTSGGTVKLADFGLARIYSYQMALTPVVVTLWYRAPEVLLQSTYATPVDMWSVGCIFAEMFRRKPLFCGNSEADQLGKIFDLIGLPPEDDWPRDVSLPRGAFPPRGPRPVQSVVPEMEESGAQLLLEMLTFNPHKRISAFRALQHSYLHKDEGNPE
Sequence of human cyclin D1-CDK4 (P24385 whole entry partner): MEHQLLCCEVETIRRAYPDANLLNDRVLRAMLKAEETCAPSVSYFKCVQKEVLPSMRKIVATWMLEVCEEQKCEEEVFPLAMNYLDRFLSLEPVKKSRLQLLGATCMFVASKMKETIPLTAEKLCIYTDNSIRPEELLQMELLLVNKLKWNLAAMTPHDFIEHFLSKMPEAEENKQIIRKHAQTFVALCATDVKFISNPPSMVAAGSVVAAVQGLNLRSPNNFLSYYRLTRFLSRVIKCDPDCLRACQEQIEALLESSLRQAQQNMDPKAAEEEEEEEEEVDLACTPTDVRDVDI

As for `COc1ccc(F)c(F)c1C(=O)c1sc(NC2CCN(S(C)(=O)=O)CC2)nc1N` [Example 14, [4-Amino-2-(1-methanesulfonylpiperidin-4-ylamino)thiazol-5-yl]-(2,3-difluoro-6-methoxyphenyl)methanone], the figures for the pKi in test [1], in test [2] and in test [3] were 9.00, 9.00 and 8.70, respectively.

For the compound `CS(=O)(=O)N1CCC(Nc2nc(N)c(C(=O)c3c(F)cccc3F)s2)CC1` [Example 17, [4-Amino-2-(1-methanesulfonyl-piperidin-4-ylamino)thiazol-5-yl]-(2,6-difluorophenyl)methanone], the figures for the pKi in test [1], in test [2] and in test [3] were 8.30, 8.52 and 8.22, respectively.
